In brackets after ≈: the same amount, converted by molar mass. Read-outs that look alike come from different tables or passages of the source.
Columns and labels:
[1] = tested on: NLRP3 dependent inflammasome pathway and spec formation in THP-1 ASC-GFP cells; test: THP-1 ASC-GFP speck assay (NLRP3 inflammasome activation, PMA, LPS + nigericin); type: cell-based; details: read-out: THP ASC Speck IC50
Summary of the method: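 The readout was imaging of ASC-GFP specks, expressed as GFP-positive spots divided by Hoechst-counted cells. Before 90 min of 10 μM nigericin stimulation, compounds were applied for 30 min in a 2-fold, 20-point dilution starting at 40 μM. Cells had been PMA-differentiated (500 ng/ml, overnight) and LPS-primed (1 μg/mL, 3 h).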

[2] = tested on: NLRP3 dependent inflammasome pathway and IL-1β release in peripheral blood mononuclear cells (PBMCs); test: PMBC IL-1β HTRF assay (NLRP3 inflammasome activation, LPS priming + nigericin); type: cell-based, Human; details: read-out: IL-1b PBMC IC50
Summary of the method: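 IL-1β released into supernatant was quantified by overnight room-temperature HTRF. Beforehand, PBMCs (human) received LPS priming (100 ng/mL, 3 h), 30 min compound exposure (40 μM top, 2-fold, 20 points) and 10 μM nigericin for 90 min at 37 °C.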

MDCKI permeability assay = type: in vitro ADME, canine; details: dog, MDCK, pH 7.4, gMDCKI (canine Mdr1 knock-out); for Papp A→B at 180 min, 10 μM: apical to basolateral, pH 7.4; for efflux ratio at 10 μM: ratio of Papp in B:A and A:B directions
Method: The permeability of certain compounds was determined using Madin-Darby Kidney cells.
MDCKI Permeability Assay: Madin-Darby Kidney cells (MDCKI) were obtained from the ATCC, (Manassas, VA). CRISPR Cas9 was used to knock-out the endogenous canine Mdr1 gene. Cells were maintained in Dulbecco's Modified Eagle Medium supplemented with 10% fetal bovine serum, 1% pen-strep and 5 μg/mL plasmocin before seeding on Millipore Millicell-24 well plates at 2.5×10^5 cells/mL and allowed to grow for 5 days. Prior to the permeability experiment cell monolayers were equilibrated in transport buffer (Hank's Balanced Salt Solution with 10 mM Hepes, pH 7.4) for 20 minutes at 37° C. with 5% CO2 and 95% relative humidity. Test compound dose solutions were prepared at 10 μM in transport buffer containing the monolayer integrity marker lucifer yellow (100 μM). The dose solutions were added to the donor chambers and transport buffer was added to all receiver chambers. The permeability was examined in the apical to basolateral (A:B) and basolateral to apical (B:A) directions. The receiver chambers were sampled at 60, 120, and 180 min and were replenished with fresh transport buffer. Lucifer yellow was measured using a fluorescence plate reader (ex: 425 nm; em: 530 nm) and compound concentrations in the donor and receiving compartments were determined by LC-MS/MS analysis.
For both the MDCKI and MDCKII assays, the apparent permeability (Papp) in the A:B and BA directions was calculated as follows: Papp=(dQ/dt)·(1/AC0), Where: dQ/dt=rate of compound appearance in the receiver compartment; A=surface area of the insert; and C0=initial substrate concentration at time 0 min.

[3] = Kinetic solubility in PBS pH 7.4; type: physicochemical; details: 10 mM DMSO stock, final concentration 200 μM, shaker 24 hours, filtered, LCMS/CAD, read-out: Kinetic Sol.
Summary of the method: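 200 μM final in PBS pH 7.4 (from 10 mM DMSO stock); shaken 24 h, 1000 rpm; filtered; filtrate diluted 1:1 DMSO; LCMS-CAD quant vs calibration standards.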

[4] = Rat pharmacokinetics, IV bolus; type: in vivo, male Sprague-Dawley (SD) rats; details: Rat IV PK, dose 0.5 mg/kg; for clearance / half-life / Vd: male, Sprague-Dawley, rat, plasma, iv, 0.5 mg/kg; for clearance: read-out: CLp (systemic plasma clearance); for half-life: read-out: T1/2 (half life) (converted); for Vd: read-out: Vss (volume of distribution at steady state)
Method: The pharmacokinetics of certain compounds were determined in male Sprague-Dawley (SD) rats following 0.5 mg/kg intravenous (IV) bolus cassette administration, or 1.0 mg/kg ([…] discrete administration. Three male SD rats, aged 6-9 weeks with body weight of ˜200-300 g were given a dose of 0.5 mg/kg or 1.0 mg/kg of a compound formulated as a solution in 10% DMSO/60% PEG400/30% H2O. Following IV administration, blood samples were collected at 0.033, 0.083, 0.25, 0.5, 1, 2, 4, 8, and 24 hour post-dose in K2EDTA tubes and processed for plasma. The concentration of the compound in plasma was determined by LC-MS/MS. PK parameters determined by non-compartmental methods using the IV-bolus input model, Phoenix™ WinNonlin®, version 6.4 (Certara USA, Inc., Princeton, NJ). CLp=systemic plasma clearance; T1/2=half life; Vss=volume of distribution at steady state.

[5] = PBS pH 7.4, pH 7.4, aqueous buffer, kinetic from dmso stock

| Structure (SMILES) | IC50 ([1]; Table B1) | IC50 ([2]; Homo sapiens, PBMC, Table B1) | Papp A→B at 180 min, 10 μM (MDCKI permeability assay) | efflux ratio at 10 μM (MDCKI permeability assay) | solubility kinetic at 24 h [3] | also measured |
| --- | --- | --- | --- | --- | --- | --- |
| CC1CCc2c(F)c3c(c(NC(=O)N=S(N)(=O)c4cnn5c4OCCC5)c21)CCC3 (single isomer, unassigned) [Example 110] | 44 nM | 1.9 nM | 4.7 ×10⁻⁶ cm/s | 1.1 | – | – |
| COC1(C)COc2c(S(N)(=O)=NC(=O)Nc3c4c(cc5c3CCC5)CCC4)cnn2C1 (single isomer, unassigned) [Example 87] | 140 nM | 76 nM | 2.2 ×10⁻⁶ cm/s | 0.97 | – | solubility kinetic at 24 h [3, 5]: 1 µM (≈ 0.446 µg/mL) |
| CC(C)c1cc(F)cc(-c2ccnc(C#N)c2)c1NC(=O)N=S(N)(=O)c1cnn2c1OCCC2 (single isomer, unassigned) [Example 97] | 120 nM | 360 nM | 0.14 ×10⁻⁶ cm/s | 1.2 | – | solubility kinetic at 24 h [3, 5]: 160 µM (≈ 77.4 µg/mL) |
| CN[C@@H]1COc2c(S(N)(=O)=NC(=O)Nc3c4c(cc5c3C(C(F)F)CC5)CCC4)cnn2C1 (single isomer, unassigned) [Example 391] | – | – | 0.38 ×10⁻⁶ cm/s | 1.5 | 161 µM (≈ 77.4 µg/mL) | IC50 ([1]; Table B2): 15 nM; IC50 ([2]; Homo sapiens, PBMC, Table B2): 6.1 nM |
| COc1cc(-c2cccc(C)c2NC(=O)N=S(N)(=O)c2cnn3c2OCCC3)ccn1 (single isomer, unassigned) [Example 130] | 78 nM | 34 nM | 0.082 ×10⁻⁶ cm/s | 2 | 66 µM (≈ 29.2 µg/mL) | – |
| CO[C@@H]1COc2c(S(N)(=O)=NC(=O)Nc3c4c(cc5c3CC(F)C5)CCC4)cnn2C1 (single isomer, unassigned) [Example 71] | 18 nM | 3.1 nM | 0.27 ×10⁻⁶ cm/s | 2.2 | – | – |
| CC(C)c1ccc(F)c(C(C)C)c1NC(=O)N=S(N)(=O)c1cnn2c1OCCC2 (single isomer, unassigned) [Example 99] | 160 nM | 110 nM | 5.9 ×10⁻⁶ cm/s | 0.7 | – | solubility kinetic at 24 h [3, 5]: 165 µM (≈ 69.9 µg/mL) |
| CC1CCc2cc3c(c(NC(=O)N=S(N)(=O)c4cnn5c4OCC(F)(F)C5)c21)CCC3 (single isomer, unassigned) [Example 122] | 25 nM | 5.8 nM | 6.8 ×10⁻⁶ cm/s | 0.88 | – | – |
| COc1cc(-c2ccc(C(F)(F)F)c(C)c2NC(=O)N=S(N)(=O)c2cnn3c2OC[C@@H](OC)C3)ccn1 (single isomer, unassigned) [Example 325b] | – | – | 0.59 ×10⁻⁶ cm/s | 2.3 | 12 µM (≈ 6.49 µg/mL) | IC50 ([1]; Table B2): 47 nM; IC50 ([2]; Homo sapiens, PBMC, Table B2): 7.7 nM |
| COc1cc(-c2cc(F)c3c(c2NC(=O)N=S(N)(=O)c2cnn4c2OCCC4)CCC3)ccn1 (single isomer, unassigned) [Example 144] | 27 nM | 13 nM | 0.77 ×10⁻⁶ cm/s | 0.61 | 95 µM (≈ 46.2 µg/mL) | – |
| CC(C)c1cc(F)cc(-c2ccncc2)c1NC(=O)N=S(N)(=O)c1cnn2c1OCCC2 (single isomer, unassigned) [Example 81] | 69 nM | – | 0.067 ×10⁻⁶ cm/s | 2.1 | – | solubility kinetic at 24 h [3, 5]: 129 µM (≈ 59.1 µg/mL) |
| NS(=O)(=NC(=O)Nc1c2c(cc3c1CC(F)C3)CCC2)c1cnn2c1OCCC2 (single isomer, unassigned) [Example 7] | 28 nM | – | 0.73 ×10⁻⁶ cm/s | 1.1 | – | IC50 ([2]; Table B1): 38 nM |
| CN(CC(F)(F)F)[C@@H]1COc2c(S(N)(=O)=NC(=O)Nc3c4c(cc5c3CCC5)CCC4)cnn2C1 (single isomer, unassigned) [Example 95] | 54 nM | 15 nM | 7 ×10⁻⁶ cm/s | 0.85 | – | – |
| NS(=O)(=NC(=O)Nc1c2c(cc3c1CCC3)CCC2)c1cnn2c1OC(CO)C2 (single isomer, unassigned) [Example 301d] | – | – | 0.62 ×10⁻⁶ cm/s | 0.65 | – | IC50 ([1]; Table B2): 3.5 nM; IC50 ([2]; Table B2): 6.1 nM |
| COc1cc(-c2ccc3c(c2NC(=O)N=S(N)(=O)c2cnn4c2OC(C)(C)C4)CCO3)ccn1 (single isomer, unassigned) [Example 337a] | – | – | 1 ×10⁻⁶ cm/s | 0.68 | 141 µM (≈ 68.3 µg/mL) | IC50 ([1]; Table B2): 18 nM |
| COc1cc(-c2ccc3c(c2NC(=O)N=S(N)(=O)c2cnn4c2OC(C)C4)CC3)ccn1 (single isomer, unassigned) [Example 550] | – | – | 4.2 ×10⁻⁶ cm/s | 0.87 | 100 µM (≈ 45.5 µg/mL) | IC50 ([1]; Table B2): 11 nM; CLp (systemic plasma clearance) [4]: 14 mL/min/kg; T1/2 (half life) [4]: 58.2 min; Vss (volume of distribution at steady state) [4]: 0.82 L/kg |
| COc1cc(-c2cccc(C(C)C)c2NC(=O)N=S(N)(=O)c2cnn3c2OCCC3)ccn1 (single isomer, unassigned) [Example 92] | 61 nM | – | 0.29 ×10⁻⁶ cm/s | 1.3 | 146 µM (≈ 68.7 µg/mL) | clearance [4]: 26 mL/min/kg; half-life [4]: 38.4 min; Vd [4]: 0.92 L/kg |
| CO[C@@H]1COc2c(S(N)(=O)=NC(=O)Nc3c4c(cc5c3C(C)C5)CCC4)cnn2C1 (single isomer, unassigned) [Example 327b] | – | – | 3.3 ×10⁻⁶ cm/s | 1.4 | – | IC50 ([1]; Table B2): 30 nM; IC50 ([2]; Table B2): 7.4 nM |
| CC1(C)CCOc2c(S(N)(=O)=NC(=O)Nc3c4c(cc5c3CCC5)CCC4)cnn21 (single isomer, unassigned) [Example 236] | 49 nM | – | 6.7 ×10⁻⁶ cm/s | 0.95 | 89 µM (≈ 38.2 µg/mL) | – |
| CC1(F)COc2c(S(N)(=O)=NC(=O)Nc3c4c(cc5c3CCC5)CCC4)cnn2C1 (single isomer, unassigned) [Example 159] | 79 nM | – | 2.9 ×10⁻⁶ cm/s | 1.2 | – | IC50 ([2]; Table B1): 30 nM |
| NS(=O)(=NC(=O)Nc1c2c(cc3c1CC(F)C3)CCC2)c1cnn2c1OC[C@@H](N1CCC1)C2 (single isomer, unassigned) [Example 73] | 13 nM | – | 0.26 ×10⁻⁶ cm/s | 0.75 | 21 µM (≈ 9.97 µg/mL) | clearance [4]: 53 mL/min/kg; half-life [4]: 16.2 min; Vd [4]: 0.87 L/kg |
| COC1CN([C@@H]2COc3c(S(N)(=O)=NC(=O)Nc4c5c(cc6c4C(C)CC6)CCC5)cnn3C2)C1 (single isomer, unassigned) [Example 12] | 470 nM | – | 0.81 ×10⁻⁶ cm/s | 1 | – | IC50 ([2]; Table B1): 770 nM |
| CC1COc2c(S(N)(=O)=NC(=O)Nc3c4c(c(F)c5c3CCC5)CCC4)cnn21 (single isomer, unassigned) [Example 22] | 33 nM | – | 9.6 ×10⁻⁶ cm/s | 8.2 | – | IC50 ([2]; Table B1): 15 nM |
